Measured values: patent US20240091254A1, “WNT AGONISTS FOR PREVENTION OF CANCER” (ACADEMISH MEDISCH CENTRUM, priority 2021, published 2024)

Key:
[1] = tested on: Wnt pathway (TOP-GFP reporter); assay: TOP-GFP Wnt reporter assay in MEFs; type: cell-based, mouse
Protocol: Mouse embryonic fibroblasts (MEFs, ATCC) and HEK293T (ATCC) cells were both cultured in Dulbecco's Modified Eagle's Medium (DMEM) supplemented with 10% fetal calf serum (FCS), 1% Glutamine, and antibiotic penicillin and streptomycin. Cells were maintained at 37° C. in humidified air containing 5% CO2. All cell lines were routinely checked for mycoplasm contamination, no cell line authentication was performed.
Mouse embryonic fibroblasts (MEFs) were cultured in Dulbecco's Modified Eagle's Medium (DMEM) supplemented with 10% fetal calf serum (FCS), 1% Glutamine, and antibiotic penicillin and streptomycin. MEFs were stably transduced with Wnt reporter TOP-GFP (Addgene plasmid #35491). For TOP-GFP assays, cells were stimulated with Wnt3A conditioned medium for 24 hours after which GFP positivity was measured by flow cytometry.

human colon organoids = assay: Human colon organoids incubated with FAP CM; type: cell-based; settings: FAP CM with or without LiCl
[2] = tested on: intestinal stem cells (ISCs) / intestinal epithelial cells; assay: Oral LiCl in WT Lgr5-CreErt2;Rosa26mTmG mice: Wnt activation and neutral ISC dynamics; type: in vivo, mouse
Protocol: (§1) Lgr5-EGFP-IRES-Cre^ERT2 Villin-Cre^ERT2, Rosa26mTmG, Apc^fl/fl and Kras^G12D mice have been described earlier^30-34. All in vivo experiments were approved by the animal experimentation committee at the Amsterdam UMC—location Academic Medical Center in Amsterdam under nationally registered licence number AVD1180020172125 and performed according to national guidelines. Mice were housed in a 12 hour light/12 hour dark cycle, with temperatures between 20-24° C. and 40-70% humidity. For short term assays, both male and female mice were used. For long term assays, only females were used to prevent the risk of preliminary dropout due to fighting male mice. […] For all mouse experiments, sufficient sample sizes were determined based on previous studies with a similar study design^3,35. Experimental animals were randomly assigned to the control or lithium treated groups, clone sizes and adenoma counts were scored blindly. […] Mouse discomfort during tumour formation assays was closely monitored, and endpoints were determined as <15% weight loss within 2 days or a mouse grimace scale (MGS) score<3. […] After 60 days, intestines were removed and polyps were counted macroscopically.
(§2) After the mice were sacrificed, intestines were removed fully and washed thoroughly with ice-cold PBS. […] For all crypt analyses, clone sizes were quantified as proportions of the crypt circumference (in eights, 1:8-8:8). […]

intestinal adenomas = assay: Long term adenoma formation in Lgr5-CreErt2;Apcfl/fl mice; type: in vivo, mouse; settings: LiCl pre-treatment and maintenance, 60 days after induction
Protocol: Lgr5-EGFP-IRES-Cre^ERT2 Villin-Cre^ERT2, Rosa26mTmG, Apc^fl/fl and Kras^G12D mice have been described earlier^30-34. All in vivo experiments were approved by the animal experimentation committee at the Amsterdam UMC—location Academic Medical Center in Amsterdam under nationally registered licence number AVD1180020172125 and performed according to national guidelines. Mice were housed in a 12 hour light/12 hour dark cycle, with temperatures between 20-24° C. and 40-70% humidity. For short term assays, both male and female mice were used. For long term assays, only females were used to prevent the risk of preliminary dropout due to fighting male mice. All mice were between 6-12 weeks old at the start of the experiments. For all mouse experiments, sufficient sample sizes were determined based on previous studies with a similar study design^3,35. Experimental animals were randomly assigned to the control or lithium treated groups, clone sizes and adenoma counts were scored blindly. […] Mouse discomfort during tumour formation assays was closely monitored, and endpoints were determined as <15% weight loss within 2 days or a mouse grimace scale (MGS) score<3. […] After 60 days, intestines were removed and polyps were counted macroscopically.

KrasG12D-mutant clones = assay: KrasG12D clone dynamics in vivo with or without LiCl; parameters: species or system mouse; settings: Lgr5-CreErt2;Rosa26mTmG;KrasG12D mice
Protocol: as §1, §2

SMILES: [Cl-].[Li+] [LiCl, lithium chloride]
- Effect on Apc-/- CM reduction of Wnt3a mediated Wnt activation (TOP-GFP) ([1]; MEFs, TOP-GFP reporter, 5 mM LiCl): completely abrogated this effect
- Wnt signalling activation in Wnt reporter assay, Li2CO3 compared with LiCl ([1]; comparable concentrations (5 or 10 mM)): activated the same amount of Wnt signalling
- Stemness (LGR5 expression) and clonogenicity of human colon organoids incubated with FAP CM (human colon organoids): rescued loss of sternness and clonogenicity
- Influence on fundamental ISC dynamics (neutral ISC competition) ([2]; WT mice, oral LiCl): no influence on fundamental ISC dynamics
- Wnt activation in intestinal epithelial cells (Lgr5 expression, Lgr5-GFP cells) ([2]; oral LiCl 300 mg/liter in tap water): effective Wnt activation
- Adenoma formation (number of adenomas) (intestinal adenomas): markedly reduced adenoma formation in all segments of the intestine
- KrasG12D clone dynamics (KrasG12D-mutant clones): remained unaffected
